Experimental data: article PMC7059793, “Novel Chemical Scaffolds to Inhibit the Neutral Amino Acid Transporter B^0AT1 (SLC6A19), a Potential Target to Treat Metabolic Diseases” (Frontiers in Pharmacology, 2020)
Where two headings read alike, the source gives them in different places.

How the values were obtained:
B^0AT1 [1] = biological target: T1, B^0AT1 (Homo sapiens, UniProt Q695T7); assay: Radioactive flux assay (radiolabelled leucine/isoleucine uptake) in CHO-BC cells; type: cell-based; conditions: 150 μM [14C]leucine or [14C]isoleucine, 6 min, 37°C
T1 construct: expressed in transfected cells
T1 sequence (Q695T7 1-634): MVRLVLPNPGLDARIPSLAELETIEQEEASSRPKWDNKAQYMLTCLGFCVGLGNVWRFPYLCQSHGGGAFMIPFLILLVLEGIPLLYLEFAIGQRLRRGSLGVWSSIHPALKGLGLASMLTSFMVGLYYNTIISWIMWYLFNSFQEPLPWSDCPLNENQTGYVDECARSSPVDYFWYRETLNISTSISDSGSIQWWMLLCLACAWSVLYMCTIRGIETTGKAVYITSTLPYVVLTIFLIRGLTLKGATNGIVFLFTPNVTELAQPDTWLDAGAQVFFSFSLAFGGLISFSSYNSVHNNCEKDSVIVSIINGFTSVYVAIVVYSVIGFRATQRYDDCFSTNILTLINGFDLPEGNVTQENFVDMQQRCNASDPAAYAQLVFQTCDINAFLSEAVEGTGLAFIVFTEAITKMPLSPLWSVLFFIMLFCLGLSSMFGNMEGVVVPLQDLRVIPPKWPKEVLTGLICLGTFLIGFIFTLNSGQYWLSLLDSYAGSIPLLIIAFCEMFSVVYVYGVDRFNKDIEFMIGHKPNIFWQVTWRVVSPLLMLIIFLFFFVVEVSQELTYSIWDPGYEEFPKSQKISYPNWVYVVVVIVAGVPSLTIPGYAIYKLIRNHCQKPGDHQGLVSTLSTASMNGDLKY
T1 sequence (Q9HBJ8 15-222 partner): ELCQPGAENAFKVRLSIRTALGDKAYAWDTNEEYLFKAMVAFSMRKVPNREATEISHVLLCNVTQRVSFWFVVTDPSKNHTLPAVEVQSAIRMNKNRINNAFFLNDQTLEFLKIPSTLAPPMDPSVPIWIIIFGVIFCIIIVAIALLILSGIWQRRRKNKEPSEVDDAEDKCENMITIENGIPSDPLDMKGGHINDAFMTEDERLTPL
Procedure: CHO-BC cells with passage numbers from 3 to 10 were used in radio-labelled uptake assays. Before the assay, the cells were seeded out in 35 mm dishes (Corning) and maintained for 48–72 h until reaching 80–90% confluence. To initiate transport, the culture medium was removed and the cells washed three times with HBSS + G. Subsequently, cells were incubated with HBSS + G, radiolabelled substrates (150 μM L-[U-^14C]leucine or 150 μM L-[U-^14C]isoleucine) and inhibitors as indicated in the figures or table in a 37°C water bath for 6 min. To terminate transport, cells were washed three times with ice-cold HBSS pH 7.5. For measuring sodium-independent uptake, NaCl in Hank’s buffer was replaced by NMDG-Cl. Cells were then harvested by homogenizing with 500 µl of 0.1 M HCl. An aliquot of 400 µl was used for scintillation counting and the remainder for protein quantification. To investigate inhibition of ASCT2, uptake of 100 μM [^14C]glutamine was measured in 143B cells in the absence and presence of inhibitor (at 10 μM and 50 μM). To measure inhibition of LAT1, uptake of [^14C]leucine was measured in HBSS + G in which NaCl was replaced by NMDG-Cl in 143B cells in the absence and presence of inhibitor (at 10 μM and 50 μM).
(§1) Data are shown as mean ± S.D., transport activities indicated as Na^+-dependent net uptake, were calculated by subtracting the uptake activity in the absence of Na^+ from the total uptake rate. The fluorescent signals measured in the FLIPR assay were normalized to baseline readings before the addition of substrates. Data are presented as percentage of baseline at each time point. IC50 was calculated using the equation: y=ymax(1−[x]/[x]+IC50) .

B^0AT1 [2] = biological target: T1, B^0AT1; assay: Membrane potential detecting FLIPR assay in CHO-BC cells; type: cell-based; conditions: 30 min pre-incubation, leucine or isoleucine 1.5 mM
Procedure: CHO-B^0AT1-collectrin Cells (CHO-BC) were generated, cultured, and used as described recently ([Cheng et al., 2017]). Expression levels of B^0AT1 in CHO-BC cells decline over time. As a result, passages <10 were used for experiments. The cells were maintained in Ham’s F-12 glutamax media with 10% (v/v) fetal bovine serum (FBS, Heat inactivated, 10082147 Gibco), 1mM glutamine, 300μg/ml hygromycin B and 275 μg/ml geneticin.
Membrane depolarisation induced by amino acid transport was monitored using a FLIPR® kit (Molecular Devices, R8042 BLUE DYE). Before the assay, CHO-BC cells were seeded out at a density of 60,000 cells/well and maintained in a flat transparent bottom 96-well plate (Corning) overnight. After washing three times with Hank’s balanced salt solution (136.6 mM NaCl, 5.4 mM KCl, 0.44 mM KH2PO4, 2.7mM Na2HPO4, 1.26mM CaCl2, 0.5mM MgCl2, 0.4 mM MgSO4, 10mM HEPES, pH 7.5, supplemented with 5 mM glucose, abbreviated HBSS + G), cells in each well were incubated for 30 min at room temperature in 50 µl of HBSS pH 7.5 containing 5 mM glucose and compounds as indicated, together with 50 µl of dye-loading buffer provided with the kit. Subsequently, the fluorescence signal was detected every 10 s before and after the addition of leucine or isoleucine at a final concentration of 1.5 mM. Fluorescence was detected at room temperature using a PerkinElmer multimode Plate Reader, with an excitation wavelength of 530 nm and emission wavelength of 565 nm.
as §1

B^0AT1 [3] = biological target: T2, B^0AT1 (Mus musculus, UniProt Q9D687); assay: Na+-dependent leucine uptake in inverted sections of mouse intestine; conditions: 50 μM inhibitor, 150 μM [14C]leucine
T2 construct: from tissue; host or cells: small intestine of C57/BL6J female mice, inverted 1 cm sections
Source text: For uptake assays with inverted sections of mouse small intestine, 5–7 months old C57/BL6J female mice were sacrificed by cervical dislocation (Animal ethics protocol A2016/41, Australian National University). The small intestine was removed and the intestinal lumen was rinsed with ice-cold 0.9% NaCl. Subsequently, the small intestine was inverted on a metal rod to expose the mucosa. The inverted intestine was then cut into 1 cm pieces and fitted onto enzyme spatulas, which were immersed in HBSS pH 7.5 supplemented with 1 mM glutamine and protease inhibitor (Roche Complete). After washing twice in modified HBSS pH 7.5 (containing 10% NaCl + 90% NMDG-Cl for Na^+-dependent uptake and 100% NMDG-Cl for Na^+-independent uptake, both buffers supplemented with 1 mM glutamine) to remove residual compounds, the segments were pre-incubated in the same buffer in the presence of 50 µM of transport inhibitor and protease inhibitors for 15 min. At the end of the pre-incubation, the segments were transferred for 30 s into uptake buffer at 37°C (HBSS pH 7.5 supplemented with 150 μM [^14C]leucine and 50 µM transport inhibitor). For Na^+-dependent uptake regular HBSS was used, for Na^+-independent uptake NaCl was replaced by NMDG-Cl. Subsequently, the segments were rinsed three times in ice-cold HBSS pH 7.5 and lysed in 400 µl of 10% SDS. After 2–3 h, the lysed tissues were analyzed by scintillation counting.
To test whether the novel B^0AT1 inhibitors block the transporter in a more physiological environment, we studied leucine uptake in inverted sections of mouse intestine ( Figure 6C ). We established previously that Na^+-dependent leucine uptake (blue bars) in this system is mediated by B^0AT1 ([Broer et al., 2011]). In addition leucine uptake has a Na^+-independent transport component (salmon coloured bars), which is most likely mediated by rbat/b^0,+AT. Because of variability between animals, all data were normalized to uninhibited controls from the same animal.

B^0AT1 [4] = biological target: T1, B^0AT1; conditions: reference not printed at the place; ref Danthi et al., 2019; cited from earlier work
B^0AT1 [5] = conditions: rat brush-border B^0AT1 in proteoliposomes; ref Pochini et al., 2014; cited from earlier work

T2 sequence (Q9D687 whole entry): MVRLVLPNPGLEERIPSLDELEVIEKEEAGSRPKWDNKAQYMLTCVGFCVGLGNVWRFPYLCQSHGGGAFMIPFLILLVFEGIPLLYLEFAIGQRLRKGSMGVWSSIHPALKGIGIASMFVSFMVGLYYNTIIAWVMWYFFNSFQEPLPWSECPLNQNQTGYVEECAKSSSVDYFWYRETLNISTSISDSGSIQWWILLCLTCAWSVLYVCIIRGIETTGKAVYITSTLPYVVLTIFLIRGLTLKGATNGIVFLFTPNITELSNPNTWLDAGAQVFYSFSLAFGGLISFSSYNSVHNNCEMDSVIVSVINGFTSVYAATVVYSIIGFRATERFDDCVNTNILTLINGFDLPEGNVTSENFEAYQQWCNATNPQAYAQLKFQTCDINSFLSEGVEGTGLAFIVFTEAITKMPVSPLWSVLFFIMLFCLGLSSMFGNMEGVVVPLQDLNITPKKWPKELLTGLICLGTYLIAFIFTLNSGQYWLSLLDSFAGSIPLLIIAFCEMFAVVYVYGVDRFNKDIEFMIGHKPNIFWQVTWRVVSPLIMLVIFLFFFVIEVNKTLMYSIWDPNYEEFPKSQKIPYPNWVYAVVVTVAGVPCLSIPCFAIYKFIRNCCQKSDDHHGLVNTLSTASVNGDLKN
T2 sequence (Q8R0I0 18-805 partner): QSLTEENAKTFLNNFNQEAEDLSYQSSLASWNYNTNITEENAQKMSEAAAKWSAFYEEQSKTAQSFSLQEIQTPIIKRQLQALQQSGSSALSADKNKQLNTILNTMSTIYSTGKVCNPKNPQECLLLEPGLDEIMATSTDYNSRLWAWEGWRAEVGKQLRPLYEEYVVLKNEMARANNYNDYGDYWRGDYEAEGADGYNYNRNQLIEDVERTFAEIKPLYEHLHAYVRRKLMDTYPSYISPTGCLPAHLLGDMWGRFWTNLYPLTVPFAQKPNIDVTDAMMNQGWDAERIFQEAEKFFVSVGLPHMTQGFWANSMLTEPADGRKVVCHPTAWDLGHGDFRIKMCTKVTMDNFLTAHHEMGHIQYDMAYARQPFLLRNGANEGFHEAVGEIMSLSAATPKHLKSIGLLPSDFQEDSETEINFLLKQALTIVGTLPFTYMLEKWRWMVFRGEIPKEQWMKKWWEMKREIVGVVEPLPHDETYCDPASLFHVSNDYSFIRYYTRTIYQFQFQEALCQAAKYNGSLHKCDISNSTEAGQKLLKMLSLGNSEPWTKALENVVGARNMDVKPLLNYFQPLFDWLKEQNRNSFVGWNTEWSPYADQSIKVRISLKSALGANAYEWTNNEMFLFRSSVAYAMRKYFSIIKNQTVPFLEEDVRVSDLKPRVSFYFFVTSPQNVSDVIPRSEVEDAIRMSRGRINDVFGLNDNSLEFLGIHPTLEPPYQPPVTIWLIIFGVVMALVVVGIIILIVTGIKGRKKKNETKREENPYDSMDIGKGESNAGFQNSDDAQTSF

SMILES	IC50 (B^0AT1 [1])	IC50 (B^0AT1 [2])	Inhibition of Na+-dependent leucine uptake (B^0AT1) ex vivo (B^0AT1 [3])	IC50 (B^0AT1 [4])	IC50 (B^0AT1 [5])
CN1[C@@H]2CC[C@H]1C[C@@H](OC(c1ccccc1)c1ccccc1)C2 [Benztropin, benztropine, reference compound]	71 ± 8 µM	44 ± 9 µM	–	–	–
CCNC(=O)/C=C/c1cccc(Br)c1 [Cinromide, cinromide, reference compound]	–	0.5 ± 0.08 µM	limited capacity to inhibit B^0AT1	300 nM	–
COc1ccc(C(CCCN2CCOCC2)c2ccccc2)cc1 (stereo not shown) [Compound E-47]	17 ± 9 µM	21 ± 6 µM	–	–	–
COc1ccc(C(CCCN2CCCCC2)c2ccccc2)cc1 (stereo not shown) [Compound E-53]	8 ± 4 µM	31 ± 15 µM	–	–	–
COc1ccc(C(CCCN2CCOCC2)c2ccc(C)cc2)cc1 (stereo not shown) [Compound E-62]	16 ± 8 µM	20 ± 1 µM	–	–	–
COc1ccc(C(CCCN2CCCCC2)c2ccc(C)cc2)cc1 (stereo not shown) [Compound E-63]	39 ± 10 µM	32 ± 14 µM	–	–	–
COc1ccc(C(CCCN2CCOCC2)c2ccc(F)cc2)cc1 (stereo not shown) [Compound E-68]	19 ± 6 µM	33 ± 9 µM	–	–	–
COc1ccc(C(CCCN2CCCCC2)c2ccc(F)cc2)cc1 (stereo not shown) [Compound E-69]	46 ± 7 µM	94 ± 20 µM	–	–	–
Cc1ccc(C(CCCN2CCOCC2)c2ccc3c(c2)OCO3)cc1 (stereo not shown) [Compound E-84]	19 ± 4 µM	31 ± 3 µM	–	–	–
Cc1ccc(C(CCCN2CCCCC2)c2ccc3c(c2)OCO3)cc1 (stereo not shown) [Compound E-85]	8 ± 2 µM	36 ± 11 µM	–	–	–
COc1ccc(C(CCCN2CCOCC2)c2ccc3c(c2)OCO3)cc1 (stereo not shown) [Compound E-89]	34 ± 7 µM	39 ± 4 µM	–	–	–
COc1ccc(C(CCCN2CCCCC2)c2ccc3c(c2)OCO3)cc1 (stereo not shown) [Compound E-90]	25 ± 8 µM	74 ± 19 µM	–	–	–
c1ccc(CCCN2CCCCC2Cc2ccccc2)cc1 (stereo not shown) [NSC22789, reference compound]	78 ± 16 µM	90 ± 21 µM	–	–	–
CS(=O)(=O)Nc1ccc([N+](=O)[O-])cc1Oc1ccccc1 [Nimesulide]	–	–	–	–	23 µM
